# Patent US11548868B2, “Heterocyclic compounds, compositions comprising heterocyclic compound, and methods of use thereof” (JS INNOPHARM (SHANGHAI) LTD, priority 2017, dated 2023)
# Where a name gives a salt, the structure may show the parent alone.
# Target: T1, TDO2 in A172 cancer cells (Homo sapiens, UniProt P48775)
# T1 construct: endogenous in cells; host or cells: A172 cancer cells
# Experiment: TDO2 Cellular Assay (kynurenine production in A172 cancer cells)
# Format: cell-based
# Settings: L-Trp 1 mM, 24 hours incubation, kynurenine at 490 nm
# Procedure: A172 cancer cells (3×10^4 per well) in 85 μL DMEM medium containing 10% FBS were seeded in a 96-well plate and incubated at 95% humidity and 5% CO2 at 37° C. for overnight. On the next day, L-Trp solution (10 μL, 1 mM final concentration) and serial dilutions of the test compounds and DMEM medium resulting in a total final volume of 100 μL each well. The test compounds were dissolved in DMSO and successively diluted with pH7.5 butter (with final DMSO concentration of 0.25%) resulting in final concentrations of the test compounds ranging from 0 to 25 μM (0, 2.5, 7.5, 25, 75, 250, 750, 2500, 7500, & 25000 nM). After 24 hours of incubation, 70 uL of the supernatant per well was transferred to a new 96 well plate. 8 μL of trichloroacetic acid (6.1 N) was mixed into each well and incubated at 50° C. for 30 min to hydrolyze N-formylkynurenine to kynurenine. The reaction mixture was then centrifuged for 10 min at 2500 RPM to remove sediments. 50 μL of the supernatant per well was transferred to another 96 well plate and mixed with 50 μL of 2% (w/v) p-dimethylaminobenzaldehyde in acetic acid. The yellow color derived from kynurenine was measured at 490 nm using a microplate reader. Percent inhibition of the test compounds was determined by measuring the decrease in kynurenine as compared to the control of DMSO vehicle, which was calculated by formula of (WC−WT)/WC, where WC is the mean absorbance of the control well minus blank well; WT is the mean absorbance of the test well minus the blank well. Data was analyzed by GraphPad Prism 5 and the IC50 values were obtained by non-linear regression.
# The IC50 values of for Compounds disclosed are listed in Table 2, A′: ≤0.5 μM; B′: >0.5 μM and ≤1 μM; C′: >1.0 μM and ≤5 uM; and D′: >5 μM.
# T1 sequence (P48775 whole entry): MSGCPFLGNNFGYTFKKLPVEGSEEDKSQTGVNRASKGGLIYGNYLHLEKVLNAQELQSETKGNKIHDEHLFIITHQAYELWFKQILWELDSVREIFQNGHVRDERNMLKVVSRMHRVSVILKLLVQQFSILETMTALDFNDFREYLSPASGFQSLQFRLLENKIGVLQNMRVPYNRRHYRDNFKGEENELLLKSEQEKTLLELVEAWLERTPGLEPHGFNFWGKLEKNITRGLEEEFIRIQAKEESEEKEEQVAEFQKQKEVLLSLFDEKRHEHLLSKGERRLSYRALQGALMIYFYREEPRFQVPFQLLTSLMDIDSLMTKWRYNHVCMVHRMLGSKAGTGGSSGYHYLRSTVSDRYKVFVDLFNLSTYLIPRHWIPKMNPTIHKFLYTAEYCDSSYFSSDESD
row,IC50 [nM],SMILES
1,≤ 500,"O=S(=O)(N[C@H]1[C@@H]2C[C@@](O)(c3cc(Cl)cc4[nH]ncc34)C[C@@H]21)C1CCOCC1 [Example 94, N-((1R,3r,5S,6r)-3-(6-chloro-1H-indazol-4-yl)-3-hydroxybicyclo[3.1.0]hexan-6-yl)tetrahydro-2H-pyran-4-sulfonamide]"
2,≤ 500,"CC(C)(C)OC(=O)N1C[C@@H]2C[C@@](O)(c3cc(Cl)cc4[nH]ncc34)C[C@@H]2C1 [Example 54, (3aR,5r,6aS)-tert-butyl 5-(6-chloro-1H-indazol-4-yl)-5-hydroxyhexahydrocyclopenta[c]pyrrole-2(1H)-carboxylate]"
3,≤ 500,"O=C(N[C@H]1[C@@H]2C[C@@](O)(c3cc(Cl)cc4[nH]ncc34)C[C@@H]21)C1CC1 [Example 76, N-((1R,3r,5S,6r)-3-(6-chloro-1H-indazol-4-yl)-3-hydroxybicyclo[3.1.0]hexan-6-yl)cyclopropanecarboxamide]"
4,≤ 500,"COC(=O)N1C[C@@H]2C[C@@](O)(c3cc(Cl)cc4[nH]ncc34)C[C@@H]2C1 [Example 67, (3aR,5r,6aS)-methyl 5-(6-chloro-1H-indazol-4-yl)-5-hydroxyhexahydrocyclopenta[c]pyrrole-2(1H)-carboxylate]"
5,≤ 500,"O=C(N[C@H]1[C@@H]2C[C@@](O)(c3cc(Cl)cc4[nH]ncc34)C[C@@H]21)C1CCOC1 (stereo partly drawn) [Example 72, N-((1R,3r,5S,6r)-3-(6-chloro-1H-indazol-4-yl)-3-hydroxybicyclo[3.1.0]hexan-6-yl)tetrahydrofuran-3-carboxamide]"
6,≤ 500,"CC1(C)[C@H]2CN(c3cc(Cl)cc4[nH]ncc34)C[C@H]2CN1C(N)=O (racemic) [Example 31, Racemic-(3aS,6aR)-5-(6-chloro-1H-indazol-4-yl)-1,1-dimethylhexahydropyrrolo[3,4-c]pyrrole-2(1H)-carboxamide]"
7,≤ 500,"O=C(N[C@H]1[C@@H]2C[C@@](O)(c3cc(Cl)cc4[nH]ncc34)C[C@@H]21)C1CCOCC1 [Example 91, N-((1R,3r,5S,6r)-3-(6-chloro-1H-indazol-4-yl)-3-hydroxybicyclo[3.1.0]hexan-6-yl)tetrahydro-2H-pyran-4-carboxamide]"
8,≤ 500,"CC(C)C(=O)N1C[C@@H]2C[C@@](O)(c3cc(Cl)cc4[nH]ncc34)C[C@@H]2C1 [Example 65, 1-((3aR,5r,6aS)-5-(6-chloro-1H-indazol-4-yl)-5-hydroxyhexahydrocyclopenta[c]pyrrol-2(1H)-yl)-2-methylpropan-1-one]"
9,≤ 500,"O=C(C1CCOC1)N1C[C@@H]2C[C@@](O)(c3cc(Cl)cc4[nH]ncc34)C[C@@H]2C1 (stereo partly drawn) [Example 68, ((3aR,5r,6aS)-5-(6-chloro-1H-indazol-4-yl)-5-hydroxyhexahydrocyclopenta[c]pyrrol-2(1H)-yl)(tetrahydrofuran-3-yl)methanone]"
10,≤ 500,"CCOC(=O)N[C@H]1[C@@H]2C[C@@](O)(c3cc(Cl)cc4[nH]ncc34)C[C@@H]21 [Example 81, ethyl ((1R,3r,5S,6r)-3-(6-chloro-1H-indazol-4-yl)-3-hydroxybicyclo[3.1.0]hexan-6-yl)carbamate]"
11,≤ 500,"COC(=O)N[C@H]1[C@@H]2C[C@@](O)(c3cc(Cl)cc4[nH]ncc34)C[C@@H]21 [Example 80, methyl ((1R,3r,5S,6r)-3-(6-chloro-1H-indazol-4-yl)-3-hydroxybicyclo[3.1.0]hexan-6-yl)carbamate]"
12,≤ 500,"O=C(C1CCCCC1)N1C[C@@H]2C[C@@](O)(c3cc(Cl)cc4[nH]ncc34)C[C@@H]2C1 [Example 62, ((3aR,5r,6aS)-5-(6-chloro-1H-indazol-4-yl)-5-hydroxyhexahydrocyclopenta[c]pyrrol-2(1H)-yl)(cyclohexyl)methanone]"
13,≤ 500,"O=C(C1CCCC1)N1C[C@@H]2C[C@@](O)(c3cc(Cl)cc4[nH]ncc34)C[C@@H]2C1 [Example 59, ((3aR,5r,6aS)-5-(6-chloro-1H-indazol-4-yl)-5-hydroxyhexahydrocyclopenta[c]pyrrol-2(1H)-yl)(cyclopentyl)methanone]"
14,1000 to 5000,"CC1(C)[C@H]2CN(c3cc(Cl)cn4cncc34)C[C@H]2CN1S(C)(=O)=O (racemic) [Example 49, Racemic-6-chloro-8-((3aR,6aS)-4,4-dimethyl-5-(methylsulfonyl)hexahydropyrrolo[3,4-c]pyrrol-2(1H)-yl)imidazo[1,5-a]pyridine]"
15,> 5000,"CC1(C)[C@H]2CN(c3c(C(F)(F)F)ccn4cncc34)C[C@H]2CN1S(C)(=O)=O (racemic) [Example 57, Racemic-8-((3aR,6aS)-4,4-dimethyl-5-(methylsulfonyl)hexahydropyrrolo[3,4-c]pyrrol-2(1H)-yl)-7-(trifluoromethyl)imidazo[1,5-a]pyridine]"
16,≤ 500,"O[C@@]1(c2cc(Cl)cc3[nH]ncc23)C[C@H]2CCC[C@H]2C1 [Example 30, (2r,3aR,6aS)-2-(6-chloro-1H-indazol-4-yl)octahydropentalen-2-ol]"
17,≤ 500,"O=C(C1CCC1)N1C[C@@H]2C[C@@](O)(c3cc(Cl)cc4[nH]ncc34)C[C@@H]2C1 [Example 60, ((3aR,5r,6aS)-5-(6-chloro-1H-indazol-4-yl)-5-hydroxyhexahydrocyclopenta[c]pyrrol-2(1H)-yl)(cyclobutyl)methanone]"
18,≤ 500,"CC(C)C(=O)N[C@H]1[C@@H]2C[C@@](O)(c3cc(Cl)cc4[nH]ncc34)C[C@@H]21 [Example 92, N-((1R,3r,5S,6r)-3-(6-chloro-1H-indazol-4-yl)-3-hydroxybicyclo[3.1.0]hexan-6-yl)isobutyramide]"
19,≤ 500,"O=S(=O)(N[C@H]1[C@@H]2C[C@@](O)(c3cc(Cl)cc4[nH]ncc34)C[C@@H]21)C1CC1 [Example 73, N-((1R,3r,5S,6r)-3-(6-chloro-1H-indazol-4-yl)-3-hydroxybicyclo[3.1.0]hexan-6-yl)cyclopropanesulfonamide]"
20,1000 to 5000,"NCC(=O)N[C@H]1[C@@H]2C[C@@](O)(c3cc(Cl)cc4[nH]ncc34)C[C@@H]21 [Example 103, 2-amino-N-((1R,3r,5S,6r)-3-(6-chloro-1H-indazol-4-yl)-3-hydroxybicyclo[3.1.0]hexan-6-yl)acetamide hydrochloride]"
21,≤ 500,"O=C(N[C@H]1[C@@H]2C[C@@](O)(c3cc(Cl)cc4[nH]ncc34)C[C@@H]21)C1CCCCC1 [Example 85, N-((1R,3r,5S,6r)-3-(6-chloro-1H-indazol-4-yl)-3-hydroxybicyclo[3.1.0]hexan-6-yl)cyclohexanecarboxamide]"
22,≤ 500,"CCC(=O)N1C[C@@H]2C[C@@](O)(c3cc(Cl)cc4[nH]ncc34)C[C@@H]2C1 [Example 70, 1-((3aR,5r,6aS)-5-(6-chloro-1H-indazol-4-yl)-5-hydroxyhexahydrocyclopenta[c]pyrrol-2(1H)-yl)propan-1-one]"
23,≤ 500,"O=S(=O)(C1CC1)N1C[C@@H]2C[C@@](O)(c3cc(Cl)cc4[nH]ncc34)C[C@@H]2C1 [Example 37, (3aR,5r,6aS)-5-(6-chloro-1H-indazol-4-yl)-2-(cyclopropylsulfonyl)octahydrocyclopenta[c]pyrrol-5-ol]"
24,≤ 500,"O=C(N[C@H]1[C@@H]2C[C@@](O)(c3cc(Cl)cc4[nH]ncc34)C[C@@H]21)C1CCCC1 [Example 79, N-((1R,3r,5S,6r)-3-(6-chloro-1H-indazol-4-yl)-3-hydroxybicyclo[3.1.0]hexan-6-yl)cyclopentanecarboxamide]"
25,≤ 500,"CC(C)OC(=O)N[C@H]1[C@@H]2C[C@@](O)(c3cc(Cl)cc4[nH]ncc34)C[C@@H]21 [Example 86, isopropyl ((1R,3r,5S,6r)-3-(6-chloro-1H-indazol-4-yl)-3-hydroxybicyclo[3.1.0]hexan-6-yl)carbamate]"
26,> 5000,"N#Cc1ccc(C(=O)N2C[C@@H]3CN(c4cc(Cl)cc5[nH]ncc45)C[C@@H]3C2)cc1 [Example 34, 4-((3aR,6aS)-5-(6-chloro-1H-indazol-4-yl)octahydropyrrolo[3,4-c]pyrrole-2-carbonyl)benzonitrile]"
27,1000 to 5000,"CC1(C)C2CN(c3cc(Cl)cc4[nH]ncc34)CC2CN1S(=O)(=O)c1ccc(C#N)cc1 (stereo not shown) [Example 26, 4-(5-(6-chloro-1H-indazol-4-yl)-1,1-dimethylhexahydropyrrolo[3,4-c]pyrrol-2(1H)-ylsulfonyl)benzonitrile]"
28,> 5000,"CC(=O)N1C[C@@H]2CN(c3c(C(F)(F)F)ccn4cncc34)C[C@@H]2C1(C)C (racemic) [Example 58, Racemic-1-((3aS,6aR)-1,1-dimethyl-5-(7-(trifluoromethyl)imidazo[1,5-a]pyridin-8-yl)hexahydropyrrolo[3,4-c]pyrrol-2(1H)-yl)ethanone]"
